This is an account of results in ChEMBL document CHEMBL3301472, “MMV Malaria Box HIV and cytotoxicity screening”.

Type in all cases: toxicity, cell-based
A short description of data set [1]: MMV: MTT Cytotoxicity Assay Day 7 pi of Assay #10 (NO washout), U87-CD4-CCR5 cells, % cell death @ 5mM compound. The settings on record: human, u87-cd4-ccr5, 5000 µM.
Data set [2] in a line: MMV: MTT Cytotoxicity Assay Day 7 pi of Assay #11 (NO washout), U87-CD4-CXCR4 cells, % cell death @ 5mM compound. To be noted: human, u87-cd4-cxcr4, 5000 µM.
Data set [3] is described as follows: MMV: MTT Cytotoxicity Assay Day 3 pi, U87-CD4-CCR5 cells, % cell death @ 5mM compound. The settings on record: human, u87-cd4-ccr5, 5000 µM.
The nature of data set [4]: MMV: MTT Cytotoxicity Assay Day 3 pi, U87-CD4-CXCR4 cells, % cell death @ 5mM compound. The settings on record: human, u87-cd4-cxcr4, 5000 µM.
The nature of data set [5]: MMV: MTT Cytotoxicity Assay Day 7 pi of Assay #6 (compound washed out Day 1 pi), U87-CD4-CCR5 cells, % cell death @ 5mM compound. The settings on record: human, u87-cd4-ccr5, 5000 µM.
Data set [6] in a line: MMV: MTT Cytotoxicity Assay Day 7 pi of Assay #7 (compound washed out Day 1 pi), U87-CD4-CXCR4 cells, % cell death @ 5mM compound. To be noted: human, u87-cd4-cxcr4, 5000 µM.

In the case of `CCOc1ccc(N2C(N)=NC(N)=NC2(C)C)cc1.Cl`, the “% Cell Death” value was 135 in data set [1]; -36 in data set [2]; 56 in data set [3]; 57 in data set [4]; 56 in data set [5]; 35 in data set [6].

Consider `Cc1ccc(Nc2nc(-c3ccccn3)cs2)cc1`, for which the “% Cell Death” value is on record as 21 in data set [1]; 12 in data set [2]; 24 in data set [3]; 29 in data set [4]; 20 in data set [5]; -17 in data set [6].

For `COc1ccccc1CNC(=O)CCn1c(=O)[nH]c2ccsc2c1=O`, the “% Cell Death” value in data set [1] is -16; in data set [2], -15; in data set [3], 34; in data set [4], 10; in data set [5], -12; in data set [6], -19.

`CC(C)OCc1cc(CN2CCN(c3cccc(Cl)c3)CC2)c(O)c2ncccc12`: the “% Cell Death” value in data set [1] is given as 125; in data set [2], 32; in data set [3], 14; in data set [4], 19; in data set [5], 19; in data set [6] it was -12.

In the case of `CCc1ccc(Nc2cc(C)c3ccc(O)cc3n2)cc1.Cl`, the “% Cell Death” value in data set [1] amounted to 130; in data set [2], 102; in data set [3] it was 105; in data set [4] it was 101; in data set [5], 101; in data set [6], 95.

For `CC(=O)NCCc1nc2ccccc2n1Cc1ccc(C(C)C)cc1`, the “% Cell Death” value in data set [1] was 13; in data set [2] it was 14; in data set [3] it was -2; in data set [4], 15; in data set [5] it was 34; in data set [6], -3.

On to `CN(N=O)C1=C(NC2CCCCC2)C(=O)c2ccccc2C1=O`, for which the “% Cell Death” value is reported as 30 in data set [1]; 15 in data set [2]; 41 in data set [3]; 45 in data set [4]; -53 in data set [5]; 36 in data set [6].

In the case of `O=C(Nc1ccc(N2CCN(Cc3ccccc3)CC2)cc1)c1cccs1.O=C(O)C(F)(F)F`, the “% Cell Death” value in data set [1] is recorded as 124; in data set [2], 28; in data set [3], -2; in data set [4] it was 55; in data set [5], 4; in data set [6], -26.

In the case of `c1ccc(/C2=N/c3ccccc3/N=C(/c3ccccc3)c3ccccc32)cc1`, the “% Cell Death” value in data set [1] is given as 16; in data set [2] it was 7; in data set [3], -3; in data set [4], 28; in data set [5], 0; in data set [6] it was -11.

In the case of `COc1ccc(CCn2c(=N)c(C(=O)NCc3cccnc3)cc3c(=O)n4cccc(C)c4nc32)cc1`, the “% Cell Death” value in data set [1] turned out to be 4; in data set [2] it was 8; in data set [3], 1; in data set [4], 15; in data set [5], 32; in data set [6], 35.

`COc1cccc(C=Cc2nc(=O)c3ccccc3o2)c1OC`: the “% Cell Death” value in data set [1] is recorded as 51; in data set [2], 31; in data set [3] it was 70; in data set [4], 54; in data set [5], 17; in data set [6], -19.

For `O=C(Nc1ccc(Cl)cc1C(=O)Nc1ccncc1)c1ccc(Cl)cc1Cl`, the “% Cell Death” value in data set [1] was determined as 15; in data set [2], 87; in data set [3] it was 0; in data set [4], 21; in data set [5], 50; in data set [6], 75.

Take `COc1ccc(-c2cc(=O)oc3c4c(ccc23)OCN(Cc2ccc(F)cc2)C4)cc1`: the “% Cell Death” value is recorded as 29 in data set [1]; -26 in data set [2]; 20 in data set [3]; 21 in data set [4]; 16 in data set [5]; -9 in data set [6].

In the case of `FC(F)(F)c1cccc(CNC2CCN(CCc3ccccc3)CC2)c1`, the “% Cell Death” value in data set [1] is -16; in data set [2], 24; in data set [3], -16; in data set [4] it was 31; in data set [5], 30; in data set [6], -15.

As to `CCCN(CCC)CCCNC(=O)c1cc2c(-c3ccc(OC)c(OC)c3)nn(C)c2s1`, the “% Cell Death” value in data set [1] was 100; in data set [2], 103; in data set [3] it was 51; in data set [4], 9; in data set [5] it was 59; in data set [6], -24.

Take `CC1CCCCN1CCCNC(=O)c1ccc2c(c1)sc1nc(-c3ccc(F)cc3)cn12` (configuration not stated): the “% Cell Death” value in data set [1] is recorded as -20; in data set [2], 61; in data set [3] it was -29; in data set [4] it was 0; in data set [5], 29; in data set [6], -50.

On to `COc1ccccc1CNC(=O)C1c2ccccc2C(=O)N(CC(C)C)C1c1cccs1` (configuration not stated), for which the “% Cell Death” value in data set [1] is 60; in data set [2], 43; in data set [3], 108; in data set [4], 23; in data set [5], 67; in data set [6] it was -8.

Turning to `CCOC(=O)c1cn(CC)c2cc(N(C)CCc3ccc(OC)c(OC)c3)c(F)cc2c1=O`, the “% Cell Death” value in data set [1] was 27; in data set [2], -17; in data set [3], 22; in data set [4] it was -10; in data set [5] it was -4; in data set [6] it was -40.

In the case of `Cc1cc(N2CCCC2)nc(Nc2ccc(NC(=O)CCc3ccccc3)cc2)n1`, the “% Cell Death” value is 0 in data set [1]; -21 in data set [2]; 14 in data set [3]; 30 in data set [4]; 20 in data set [5]; -12 in data set [6].

`O=C(NC1CCN(Cc2ccccc2)CC1)c1cc(-c2ccncc2)nc2ccc(Cl)cc12`: the “% Cell Death” value in data set [1] was 2; in data set [2], 58; in data set [3] it was 13; in data set [4], 31; in data set [5] it was -18; in data set [6] it was 8.

On to `O=C(Nc1ccc(N2CCCCC2)c(Cl)c1)c1ccc(Br)o1`, for which the “% Cell Death” value in data set [1] is 76; in data set [2], 99; in data set [3], 97; in data set [4], 61; in data set [5], 26; in data set [6], 53.

Turning to `O=C(NCC1Cc2cccc(-c3ccncc3)c2O1)c1csc2c1CCCC2` (configuration not stated), the “% Cell Death” value in data set [1] is on record as 17; in data set [2] it was 60; in data set [3], 4; in data set [4] it was 2; in data set [5], 7; in data set [6], -22.
